Key:
Leishmania donovani [1] = assay: GSK_TCAKS: pIC50 Leishmania donovani Imaging: THP-1 Host Macrophages. Assay plates (384-well) were prepared by adding 250nL of compound to each well. For single shot assay, the final compound concentration was 5 uM. […] Automated image analysis was performed with a script developed on Acapella High Content Imaging and Analysis Software (PerkinElmer). Output: THP-1 cell count were reported for each well.; format: functional, organism-based, Homo sapiens
[2] = molecular target: Sterol 14-alpha demethylase (Trypanosoma cruzi (strain CL Brener), UniProt Q7Z1V1); assay: GSK_TCAKS: pIC50 CYP51 from Trypanosoma cruzi.; format: functional
NIH3T3 = assay: GSK_TCAKS: pIC50 NIH 3T3 cell line viability assay using luminiscence. Tissue culture surface treated assay plates (1536-well) were used. […] The 100% cells survival control was determined exposing the host-cells to a 0.5% DMSO concentration, whereas the 100% toxicity control was achieved by seeding the cells in presence of Amphotericin B at 50uM. Plates were incubated for four days at 37C, 5% CO2. The assay readout was developed by addition of 5uL of CellTiter-Glo Reagent following the manufacturer's instructions. Luminiscence was measured using a ViewLux.; format: functional, cell-based; conditions: Mus musculus, NIH3T3, 96 h
[3] = test system: Trypanosoma brucei brucei; assay: GSK_TCAKS: pIC50 Trypanosoma brucei viability assay using luminiscence. Assay plates (1536-well) were prepared. T. brucei cultures were harvested and counted in a CASY cell counter. A parasite suspension was prepared at a final concentration of 5 * 10^4 cells/mL in complete HMI9 medium and 6uL was dispensed to all wells containing compounds using a Multidrop Combi dispenser. 6uL of HMI9 media with 0.4% DMSO were dispensed to control columns. Plates were incubated for 24 h at 37C, 5% CO2 then tempered for 10 min at room temperature. ATP content was quantified by adding 4 uL of CellTiter-Glo Reagent (Promega) according to the manufacturer's instructions. Luminescence was measured using a ViewLux.; format: functional, organism-based; conditions: Lister 427, CASY
[4] = GSK_TCAKS: pIC50 HepG2 human cell line viability assay using luminiscence. […] Seeding density was checked to ensure that new mono-layers were not more than 50% confluent at the time of harvesting. Cell suspension was added to 500 mL of the same medium at a final density of 1.2 * 10^5 cells/mL. This cell suspension was dispensed (25 uL, 3000 cells per well) into 384-well clear-bottom plates using a Multidrop Combi dispenser. Prior to addition of the cell suspension, the screening compounds (250 nL) were pre-dispensed into the plates with an Echo liquid handler. Plates were incubated for 48 h at 37C, 5% CO2. After incubation, plates equilibrated at room temperature for 30 min before proceeding to develop the luminescent signal. The signal developer, CellTiter-Glo Reagent, was allowed to equilibrate at room temperature for 30 min and added to the plates (25uL per well) using a Multidrop Combi dispenser. Plates were left for 10 min at room temperature for stabilization and then read using a ViewLux.; format: toxicity, cell-based
Trypanosoma cruzi [5] = assay: (§1) GSK_TCAKS: pIC50 H2C9 Imaging: H9c2 Host Cardiomyocytes. […] Cells were then washed once with PBS before infection. T. cruzi trypomastigotes, collected at days 5 to 8 after infection from LLC-MK2 parasite infected cultures, were allowed to swim out for 4h at 37C from a centrifuged pellet (2,500 rpm/10 min/room temperature). Trypomastigotes were then collected and counted in a CASY Cell Counter. Trypomastigotes, in supplemented DMEM, were added to H9c2 cultures in a multiplicity of infection of 1 and incubated for 18 h. Cells were washed once with PBS before incubation of the infected H9c2 monolayer with trypsin (Life-Technologies) to detach cells from the flask. Cells were counted in a CASY Cell Counter using a 150 um capillary and their density set at 5 * 10^4 cells per mL in supplemented assay DMEM. Infected H9c2 were dispensed into 384-well poly-lysine coated assay plates at 50uL per well using a Multidrop Combi dispenser. After seeding them, the plates were incubated at 37C, 5% CO2 for 72h. Cultures were then fixed and stained by addition of 50 uL of a solution containing 8% formaldehyde and 4 uM DRAQ5 DNA dye (BioStatus, UK) per well. […] Five images were collected per well for reliable statistical analysis. Automated image analysis was performed with a script developed on Acapella High Content Imaging and Analysis Software (PerkinElmer). Output: Number of H9c2 Host Cardiomyocytes nuclei to determine drug-related cytotoxicity.; format: functional, organism-based, Rattus norvegicus; conditions: H9c2, 4 h
[6] = test system: Trypanosoma brucei brucei; assay: GSK_TCAKS: pIC50 Trypanosoma brucei viability assay using fluorescence intensity. Assay plates (1536-well) were prepared by dispensing 25nL of compound solution per well using an Echo acoustic dispenser (Labcyte).; format: functional, organism-based; conditions: Lister 427, 2 h
Trypanosoma cruzi [7] = assay: as §1, with “Trypanosoma cruzi” for “H2C9”, “Amastigotes/Cell.” for “H9c2 Host Cardiomyocytes.”, “number” for “Number”, “amastigotes per cell as infection level measurement.” for “H9c2 Host Cardiomyocytes nuclei to determine drug-related cytotoxicity.”; format: functional, organism-based, Rattus norvegicus; conditions: H9c2, 4 h
Trypanosoma cruzi [8] = assay: as §1, with “Trypanosoma cruzi” for “H2C9”, “Infected Cells.” for “H9c2 Host Cardiomyocytes.”, “percentage” for “Number”, “infected cells per well as a second infection marker.” for “H9c2 Host Cardiomyocytes nuclei to determine drug-related cytotoxicity.”; format: functional, organism-based, Rattus norvegicus; conditions: H9c2, 4 h
Leishmania donovani [9] = assay: GSK_TCAKS: pIC50 Leishmania donovani Imaging: Amastigotes/Macrophages. Assay plates (384-well) were prepared by adding 250nL of compound to each well. For single shot assay, the final compound concentration was 5 uM. […] Automated image analysis was performed with a script developed on Acapella High Content Imaging and Analysis Software (PerkinElmer). Output: Average number of amastigotes per macrophage cell were reported for each well.; format: functional, organism-based, Homo sapiens; conditions: THP-1
Leishmania donovani [10] = assay: GSK_TCAKS: pIC50 Leishmania donovani viability assay using fluorescence intensity. Assay plates (1536-well) were prepared by adding 30nL per well of compound. For single shot assay, the final compound concentration was 5uM. […] Briefly, eGFP LdBOB axenic amastigotes were harvested, fixed and counted in a CASY cell counter (Roche-Applied Science). A final concentration of 1.5 * 10^5 cells per well were prepared in amastigote media containing 500 U/mL penicillin/streptomycin (Invitrogen) and 6uL was dispensed to each experimental well using a Multidrop Combi dispenser (Thermo Scientific). 6uL of assay media was dispensed to control columns used as reference for 100% compound response. Following incubation for 72 h at 37C, 5% CO2, 2 uL of resazurin was added to each well at a final concentration of 0.5 mM in phosphate buffered saline (PBS) with IGEPAL (Sigma-Aldrich), 0.05% (v/v).; format: functional, organism-based
Trypanosoma cruzi [11] = assay: GSK_TCAKS: pIC50 Trypanosoma cruzi viability assay using beta-GAL activity. This assay was run at single shot at 5uM compound concentration per well. The biological reagents consisted of NIH-3T3 host cells and trypomastigotes parasitic cells; both cell types were set to a 3.3 * 10^5 cells/mL dilution in assay DMEM by means of a CASY cell counter device using a 60um capillary. 6 uL of the mixture were dispensed per well (about 1 * 10^3 host-cells and 1 * 10^3 parasites) with a Multidrop Combi dispenser. […] In all wells, the percentage of DMSO never exceeded 0.5%. Plates incubated for four days at 37C, 5% CO2. The substrate used for the assay fluorescence intensity (FLINT) readout was resorufin-beta-D-galactopiranoside (Sigma-Aldrich) at 5uM per well. It was diluted in PBS supplemented with the soft detergent Igepal (Fluka).; format: functional, organism-based, Mus musculus; conditions: Tulahuen, NIH3T3
Leishmania donovani [12] = assay: GSK_TCAKS: pIC50 Leishmania donovani Imaging: Infected Macrophages. Assay plates (384-well) were prepared by adding 250nL of compound to each well. For single shot assay, the final compound concentration was 5 uM. […] Automated image analysis was performed with a script developed on Acapella High Content Imaging and Analysis Software (PerkinElmer). Output: Percent of infected macrophage cells were reported for each well.; format: functional, organism-based, Homo sapiens; conditions: THP-1

Chain of Sterol 14-alpha demethylase (Q7Z1V1 whole entry): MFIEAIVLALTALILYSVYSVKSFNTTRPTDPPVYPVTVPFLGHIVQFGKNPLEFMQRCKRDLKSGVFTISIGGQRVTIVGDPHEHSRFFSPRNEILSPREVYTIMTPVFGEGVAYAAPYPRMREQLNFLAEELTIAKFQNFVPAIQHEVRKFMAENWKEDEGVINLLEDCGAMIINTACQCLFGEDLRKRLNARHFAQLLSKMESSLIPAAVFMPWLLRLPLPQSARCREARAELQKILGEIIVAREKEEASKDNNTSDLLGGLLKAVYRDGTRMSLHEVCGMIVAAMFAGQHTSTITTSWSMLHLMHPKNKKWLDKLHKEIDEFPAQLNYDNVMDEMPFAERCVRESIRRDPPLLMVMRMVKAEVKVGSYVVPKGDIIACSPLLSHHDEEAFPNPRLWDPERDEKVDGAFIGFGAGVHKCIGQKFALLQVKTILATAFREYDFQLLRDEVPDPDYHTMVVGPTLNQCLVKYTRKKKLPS

Row | SMILES | IC50 (Leishmania donovani [1]) [µM] | IC50 [2] [µM] | IC50 (NIH3T3) [µM] | IC50 [3] [µM] | IC50 at 48 h [4] [µM] | IC50 (Trypanosoma cruzi [5]) [µM] | IC50 [6] [µM] | IC50 (Trypanosoma cruzi [7]) [µM] | IC50 (Trypanosoma cruzi [8]) [µM] | IC50 (Leishmania donovani [9]) [µM] | IC50 (Leishmania donovani [10]) [µM] | IC50 (Trypanosoma cruzi [11]) [µM] | IC50 (Leishmania donovani [12]) [µM]
1 | O=C(NCc1ccncc1)c1ccccc1N1CCCN(C(=O)Cc2ccc(F)c(F)c2)CC1 | > 50.1 | 0.0794 | 15.8 | 20 | > 100 | > 50.1 | 6.31 | 0.0794 | 0.0794 | > 50.1 | 2.51 | 0.126 | > 50.1
2 | Cc1cccnc1CN1CCN(CCCOc2ccc(-c3ccc(C(N)=O)cc3)cc2)CC1 | 12.6 | > 100 | 6.31 | > 39.8 | > 100 | > 50.1 | 10 | 0.398 | 20 | 10 | > 50.1 | 0.631 | 31.6
3 | CC(C(=O)Nc1ccccc1F)N(C)CC(=O)Nc1cccc2ccccc12 (stereo not given) | > 50.1 | 15.8 | 12.6 | > 39.8 | > 100 | > 50.1 | 25.1 | 0.316 | 0.501 | > 50.1 | 50.1 | 0.398 | > 50.1
4 | COc1ccc(C(C)N(C)c2ncc3c(N)nc(N)nc3n2)cc1F (stereo not given) | > 50.1 | > 100 | 39.8 | 5.01 | > 100 | 25.1 | 12.6 | 0.0631 | 0.2 | 12.6 | 3.98 | 0.0794 | 15.8
5 | O=c1ccc2ccc(F)c3c2n1C[C@H]3CN1CCC(NCc2cc3ccccc3o2)CC1 | 31.6 | 31.6 | 20 | 2 | 39.8 | 31.6 | 0.631 | 0.126 | 0.2 | 12.6 | 15.8 | 0.398 | 20
6 | CS(=O)(=O)N[C@H]1CC[C@@H](Oc2cc3cnccc3cc2-c2ccsc2)CC1 | 15.8 | 0.0251 | 15.8 | > 39.8 | 63.1 | > 50.1 | 15.8 | 0.1 | 0.158 | 20 | 31.6 | 0.126 | 50.1
7 | Cc1c(C(=O)NCCCCn2ccnc2)oc2c(C)cccc12 | > 50.1 | 0.1 | 31.6 | > 39.8 | 79.4 | > 50.1 | 20 | 0.501 | 0.501 | > 50.1 | > 50.1 | 0.224 | > 50.1
8 | Cc1ccc2ccc(C(Nc3ccccn3)c3cccnc3)c(O)c2n1 (stereo not given) | > 50.1 | 0.0501 | 10 | 3.98 | 20 | 31.6 | 5.01 | 0.2 | 0.2 | 7.94 | 0.398 | 0.501 | 12.6
9 | COc1ccccc1C=CCN1C[C@H]2CCC[C@@H](C1)C2(O)c1cccnc1 (stereo not given in full) | 39.8 | 0.126 | 31.6 | > 39.8 | > 100 | > 50.1 | > 39.8 | 0.0398 | 0.0398 | 31.6 | > 50.1 | 0.0501 | > 50.1
10 | COc1ccc(C(=O)Nc2cc(C(F)(F)F)ccc2N2CCOCC2)c(OC)c1 | 12.6 | > 100 | 31.6 | 25.1 | > 100 | > 50.1 | 10 | 0.316 | 0.794 | 7.94 | 5.01 | 1 | 10

Source: ChEMBL document CHEMBL3430912, “GSK Tres Cantos Anti-Kinetoplastid Screening (TCAKS) Data”
